The target in this test is JAK1 (Homo sapiens (Human), UniProt P23458). Put plainly: Analysis of JAK1 activity inhibition ability (ADP-Glo Kinase Assay). The following applies: JAK1 enzyme, ADP-Glo luminescence, ATP 250 uM, IRS-itide substrate, 30° C. 40 minutes; read-out: IC50. The test is classed as biochemical. An outline of the steps:
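JAK1 enzyme, IRS-itide substrate (40 ng/mL) and 250 uM ATP, both as prepared in kinase buffer (Tris-HCl pH 7.5, MgCl2, BSA, DTT), reacted with compound 40 min at 30 °C. ADP formed was detected by ADP-Glo luminescence; IC50 is the concentration giving 50% inhibition versus control.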

This is an account of results in patent US11524968B2, “Heterocyclic compound as a protein kinase inhibitor” (HK inno.N Corporation, priority 2017, dated 2022).

A value given as a limit tells only on which side of the number the result lay.

Chain of JAK1 (P23458 whole entry): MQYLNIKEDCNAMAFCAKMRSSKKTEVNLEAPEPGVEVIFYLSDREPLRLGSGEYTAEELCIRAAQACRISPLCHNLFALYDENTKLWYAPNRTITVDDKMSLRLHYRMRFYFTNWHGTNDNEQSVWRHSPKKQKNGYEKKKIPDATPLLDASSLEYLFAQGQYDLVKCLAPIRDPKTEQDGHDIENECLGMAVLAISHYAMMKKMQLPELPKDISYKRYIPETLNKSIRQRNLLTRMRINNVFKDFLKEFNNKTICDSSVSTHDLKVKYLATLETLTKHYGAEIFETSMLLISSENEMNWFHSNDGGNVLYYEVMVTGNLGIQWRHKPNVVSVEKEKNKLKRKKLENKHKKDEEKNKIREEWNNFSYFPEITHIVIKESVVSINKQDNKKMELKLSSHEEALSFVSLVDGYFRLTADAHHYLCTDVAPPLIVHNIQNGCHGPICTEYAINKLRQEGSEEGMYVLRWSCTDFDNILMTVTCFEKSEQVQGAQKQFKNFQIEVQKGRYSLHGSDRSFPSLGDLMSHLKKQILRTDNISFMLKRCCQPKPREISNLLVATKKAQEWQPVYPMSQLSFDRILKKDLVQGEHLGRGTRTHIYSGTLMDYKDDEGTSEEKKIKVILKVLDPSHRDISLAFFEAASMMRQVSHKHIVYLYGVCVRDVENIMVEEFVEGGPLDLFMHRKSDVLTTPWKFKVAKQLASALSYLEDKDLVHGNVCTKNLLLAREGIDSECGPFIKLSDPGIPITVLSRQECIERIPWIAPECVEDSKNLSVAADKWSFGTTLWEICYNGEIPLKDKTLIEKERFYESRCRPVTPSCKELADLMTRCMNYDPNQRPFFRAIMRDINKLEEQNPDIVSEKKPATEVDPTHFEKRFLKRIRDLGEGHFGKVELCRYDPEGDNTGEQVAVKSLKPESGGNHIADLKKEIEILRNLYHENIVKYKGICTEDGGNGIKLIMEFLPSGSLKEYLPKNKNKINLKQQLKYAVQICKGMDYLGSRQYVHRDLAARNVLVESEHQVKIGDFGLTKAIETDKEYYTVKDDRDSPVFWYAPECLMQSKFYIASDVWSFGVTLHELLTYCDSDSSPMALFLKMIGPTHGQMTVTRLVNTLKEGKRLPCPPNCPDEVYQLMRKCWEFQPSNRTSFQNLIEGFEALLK

For the molecule `CCS(=O)(=O)N1CCN(C(=O)Cc2ccc(-c3cc(NC(=O)C4CC4)nc4[nH]ccc34)cc2)CC1` [Example 563, N-(4-(4-(2-(4-(ethylsulfonyl)piperazin-1-yl)-2-oxoethyl)phenyl)-1H-pyrrolo[2,3-b]pyridin-6-yl)cyclopropanecarboxamide], the half-maximal inhibitory concentration (IC50) is 20 to 200 nM. Under `CCCS(=O)(=O)N1CCN(C(=O)Cc2ccc(-c3cc(NC(=O)C4CC4)nc4[nH]ccc34)cc2)CC1` [Example 564, N-(4-(4-(2-oxo-2-(4-(propylsulfonyl)piperazin-1-yl)ethyl)phenyl)-1H-pyrrolo[2,3-b]pyridin-6-yl)cyclopropanecarboxamide] stands 20 to 200 nM; under `CCOC(=O)N1CCN(C(=O)Cc2ccc(-c3cc(NC(=O)C4CC4)nc4[nH]ccc34)cc2)CC1` [Example 565, ethyl 4-(2-(4-(6-(cyclopropanecarboxamido)-1H-pyrrolo[2,3-b]pyridin-4-yl)phenyl)acetyl)piperazine-1-carboxylate], 20 to 200 nM; under `O=C(Nc1cc(-c2ccc(CC(=O)N3CCN(S(=O)(=O)NCC(F)(F)F)CC3)cc2)c2cc[nH]c2n1)C1CC1` [Example 566, (N-(4-(4-(2-oxo-2-(4-(N-(2,2,2-trifluoroethyl)sulfamoyl)piperazin-1-yl)ethyl)phenyl)-1H-pyrrolo[2,3-b]pyridin-6-yl)cyclopropanecarboxamide)], greater than 200 nM. Regarding `N#CC1CCN(C(=O)Cc2ccc(-c3cc(NC(=O)C4CC4)nc4[nH]ccc34)cc2)C1` (stereo not shown) [Example 567, N-(4-(4-(2-(3-cyanopyrrolidin-1-yl)-2-oxoethyl)phenyl)-1H-pyrrolo[2,3-b]pyridin-6-yl)cyclopropanecarboxamide], the IC50 was 20 to 200 nM. For `N#CC1CN(C(=O)Cc2ccc(-c3cc(NC(=O)C4CC4)nc4[nH]ccc34)cc2)C1` [Example 568, N-(4-(4-(2-(3-cyanoazetidin-1-yl)-2-oxoethyl)phenyl)-1H-pyrrolo[2,3-b]pyridin-6-yl)cyclopropanecarboxamide], the IC50 was 20 to 200 nM. For the molecule `O=C(Nc1cc(-c2ccc(CC(=O)N3CCC(F)(F)C3)cc2)c2cc[nH]c2n1)C1CC1` [Example 569, N-(4-(4-(2-(3,3-difluoropyrrolidin-1-yl)-2-oxoethyl)phenyl)-1H-pyrrolo[2,3-b]pyridin-6-yl)cyclopropanecarboxamide], the IC50 is less than 20 nM. Then `O=C(Nc1cc(-c2ccc(CC(=O)N3CCC(C(F)(F)F)CC3)cc2)c2cc[nH]c2n1)C1CC1` [Example 570, N-(4-(4-(2-oxo-2-(4-(trifluoromethyl)piperidin-1-yl)ethyl)phenyl)-1H-pyrrolo[2,3-b]pyridin-6-yl)cyclopropanecarboxamide], with 20 to 200 nM. Regarding `O=C(Nc1cc(-c2ccc(C(F)(F)C(=O)N3CCS(=O)(=O)CC3)cc2)c2cc[nH]c2n1)C1CC1` [Example 571, N-(4-(4-(2-(1,1-dioxidothiomorpholino)-1,1-difluoro-2-oxoethyl)phenyl)-1H-pyrrolo[2,3-b]pyridin-6-yl)cyclopropanecarboxamide], the IC50 was in the range of 20 to 200 nM. For the molecule `O=C(Nc1cc(-c2ccc(C(F)(F)C(=O)N3CCOCC3)cc2)c2cc[nH]c2n1)C1CC1` [Example 572, N-(4-(4-(1,1-difluoro-2-morpholino-2-oxoethyl)phenyl)-1H-pyrrolo[2,3-b]pyridin-6-yl)cyclopropanecarboxamide], the IC50 lay within 20 to 200 nM.

For `CN(CC#N)C(=O)Cc1ccc(-c2cc(NC(=O)C3CC3)nc3[nH]ccc23)cc1` [Example 573, N-(4-(4-(2-((cyanomethyl)(methyl)amino)-2-oxoethyl)phenyl)-1H-pyrrolo[2,3-b]pyridin-6-yl)cyclopropanecarboxamide], the IC50 is 20 to 200 nM.

Regarding `O=C(Nc1cc(-c2ccc(CC(=O)N3CC[S+]([O-])CC3)cc2)c2cc[nH]c2n1)C1CC1` [Example 574, N-(4-(4-(2-(1-oxidothiomorpholino)-2-oxoethyl)phenyl)-1H-pyrrolo[2,3-b]pyridin-6-yl)cyclopropanecarboxamide], the IC50 was 20 to 200 nM. Then `N#CC1CCN(C(=O)C(F)(F)c2ccc(-c3cc(NC(=O)C4CC4)nc4[nH]ccc34)cc2)CC1` [Example 575, N-(4-(4-(2-(4-cyanopiperidin-1-yl)-1,1-difluoro-2-oxoethyl)phenyl)-1H-pyrrolo[2,3-b]pyridin-6-yl)cyclopropanecarboxamide], with 20 to 200 nM; and `N#CC1COCCN1C(=O)Cc1ccc(-c2cc(NC(=O)C3CC3)nc3[nH]ccc23)cc1` (stereo not shown) [Example 576, N-(4-(4-(2-(3-cyanomorpholino)-2-oxoethyl)phenyl)-1H-pyrrolo[2,3-b]pyridin-6-yl)cyclopropanecarboxamide], with 20 to 200 nM. Then `O=C(Nc1cc(-c2ccc(C3(C(=O)N4CCS(=O)(=O)CC4)CC3)cc2)c2cc[nH]c2n1)C1CC1` [Example 577, N-(4-(4-(1-(1,1-dioxidothiomorpholine-4-carbonyl)cyclopropyl)phenyl)-1H-pyrrolo[2,3-b]pyridin-6-yl)cyclopropanecarboxamide], with 20 to 200 nM.

As for `O=C(Nc1cc(C2=CCN(CC(=O)N3CCS(=O)(=O)CC3)CC2)c2cc[nH]c2n1)C1CC1` [Example 578, N-(4-(1-(2-(1,1-dioxidothiomorpholino)-2-oxoethyl)-1,2,3,6-tetrahydropyridin-4-yl)-1H-pyrrolo[2,3-b]pyridin-6-yl)cyclopropanecarboxamide], the concentration for half-maximal inhibition (IC50) fell in the range of 20 to 200 nM. Turning to `O=C(Nc1cc(-c2ccc(CNC(=O)N3CCOCC3)cc2)c2cc[nH]c2n1)C1CC1` [Example 579, N-(4-(6-(cyclopropanecarboxamido)-1H-pyrrolo[2,3-b]pyridin-4-yl)benzyl)morpholine-4-carboxamide], the IC50 was greater than 200 nM. Regarding `O=C(Nc1cc(-c2ccc(CNC(=O)N3CCS(=O)(=O)CC3)cc2)c2cc[nH]c2n1)C1CC1` [Example 580, N-(4-(6-(cyclopropanecarboxamido)-1H-pyrrolo[2,3-b]pyridin-4-yl)benzyl)thiomorpholine-4-carboxamide 1,1-dioxide], the IC50 is 20 to 200 nM. Turning to `O=C(NCc1ccc(-c2cc(NC(=O)C3CC3)nc3[nH]ccc23)cc1)NCC(F)(F)F` [Example 581, N-(4-(4-((3-(2,2,2-trifluoroethyl)ureido)methyl)phenyl)-1H-pyrrolo[2,3-b]pyridin-6-yl)cyclopropanecarboxamide], the 50% inhibitory concentration (IC50) lay in the range of 20 to 200 nM.

On to `O=C(Nc1cc(-c2ccc(CNS(=O)(=O)c3ccc(F)c(F)c3)cc2)c2cc[nH]c2n1)C1CC1` [Example 582, N-(4-(4-(((3,4-difluorophenyl)sulfonamido)methyl)phenyl)-1H-pyrrolo[2,3-b]pyridin-6-yl)cyclopropanecarboxamide], for which the IC50 is less than 20 nM.

Regarding `CCCS(=O)(=O)NCc1ccc(-c2cc(NC(=O)C3CC3)nc3[nH]ccc23)cc1` [Example 583, N-(4-(4-(propylsulfonamidomethyl)phenyl)-1H-pyrrolo[2,3-b]pyridin-6-yl)cyclopropanecarboxamide], the IC50 was in the range of 20 to 200 nM.

In the case of `O=C(Nc1cc(-c2ccc(CN3CCS(=O)(=O)CC3)cc2)c2cc[nH]c2n1)C1CC1` [Example 584, N-(4-(4-((1,1-dioxidothiomorpholino)methyl)phenyl)-1H-pyrrolo[2,3-b]pyridin-6-yl)cyclopropanecarboxamide], the IC50 was less than 20 nM.

`O=C1CCN(Cc2ccc(-c3cc(NC(=O)C4CC4)nc4[nH]ccc34)cc2)CC1` [Example 585, N-(4-(4-((4-oxopiperidin-1-yl)methyl)phenyl)-1H-pyrrolo[2,3-b]pyridin-6-yl)cyclopropanecarboxamide]: the IC50 was less than 20 nM.

Consider `N#CC1CN(Cc2ccc(-c3cc(NC(=O)C4CC4)nc4[nH]ccc34)cc2)C1` [Example 586, N-(4-(4-((3-cyanoazetidin-1-yl)methyl)phenyl)-1H-pyrrolo[2,3-b]pyridin-6-yl)cyclopropanecarboxamide], for which the IC50 fell in the range of 20 to 200 nM. As to `CS(=O)(=O)N1CCN(Cc2ccc(-c3cc(NC(=O)C4CC4)nc4[nH]ccc34)cc2)CC1` [Example 587, N-(4-(4-((4-(methylsulfonyl)piperazin-1-yl)methyl)phenyl)-1H-pyrrolo[2,3-b]pyridin-6-yl)cyclopropanecarboxamide], the concentration for half-maximal inhibition (IC50) is less than 20 nM. With `CC1CC1C(=O)Nc1cc(-c2ccc(CN3CCS(=O)(=O)CC3)cc2)c2cc[nH]c2n1` (stereo not shown) [Example 588, N-(4-(4-((1,1-dioxidothiomorpholino)methyl)phenyl)-1H-pyrrolo[2,3-b]pyridin-6-yl)-2-methylcyclopropane-1-carboxamide], the 50% inhibitory concentration (IC50) is less than 20 nM. Consider `CC(c1ccc(-c2cc(NC(=O)C3CC3)nc3[nH]ccc23)cc1)N1CCS(=O)(=O)CC1` (stereo not shown) [Example 589, N-(4-(4-(1-(1,1-dioxidothiomorpholino)ethyl)phenyl)-1H-pyrrolo[2,3-b]pyridin-6-yl)cyclopropanecarboxamide], for which the IC50 is less than 20 nM. Then `O=C(Nc1cc(-c2cc(F)c(CN3CCOCC3)c(F)c2)c2cc[nH]c2n1)C1CC1` [Example 590, N-(4-(3,5-difluoro-4-(morpholinomethyl)phenyl)-1H-pyrrolo[2,3-b]pyridin-6-yl)cyclopropanecarboxamide], with less than 20 nM; and `O=C(Nc1cc(-c2ccc(CCN3CCS(=O)(=O)CC3)cc2)c2cc[nH]c2n1)C1CC1` [Example 591, N-(4-(4-(2-(1,1-dioxidothiomorpholino)ethyl)phenyl)-1H-pyrrolo[2,3-b]pyridin-6-yl)cyclopropanecarboxamide], with 20 to 200 nM. Under `O=C(Nc1nc(-c2ccc(CN3CCS(=O)(=O)CC3)cc2)c2nc[nH]c2n1)C1CC1` [Example 592, N-(6-(4-((1,1-dioxidothiomorpholino)methyl)phenyl)-9H-purin-2-yl)cyclopropanecarboxamide] stands greater than 200 nM; under `Cc1nnn(Cc2ccc(-c3cc(NC(=O)C4CC4)nc4[nH]cnc34)cc2)n1` [Example 593, N-(7-(4-((5-methyl-2H-tetrazol-2-yl)methyl)phenyl)-3H-imidazo[4,5-b]pyridin-5-yl)cyclopropanecarboxamide], greater than 200 nM.
